Results published in PubChem BioAssay AID687005 (Broad Institute, 2013).
Inconclusive results are not listed. Calls of active or inactive are those of the source.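 Rule for the calls: active = Compounds that reduce signal, with fitted half-maximal dose at or under twice the top valid tested dose; inconclusive = Poor fit, or flat curve losing 30 to 70% of signal; inactive = Potency past limit, flat within 30%, or opposite direction.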

Assay: viability loss in HEK293T cells – cell-based, ATP luminescence, cherry-pick samples, cytotoxicity control, dose response (AID 687005)
Conditions: HEK293T viability, ATP luminescence (CellTiter-Glo), 48 h

Cc1ccc(S(=O)(=O)N2C[C@@H](O)COC[C@@H]3O[C@H](CC(=O)NCc4ccc5c(c4)OCO5)CC[C@H]32)cc1
activity change, negative = cytotoxicity (at 26 µM (top of the series)): 46.9% (inactive)

CC(C)NC(=O)Nc1ccc2c(c1)C(=O)N([C@H](C)CO)C[C@H](C)[C@H](CN(C)Cc1ccncc1)OCCCC[C@H](C)O2
activity change, negative = cytotoxicity (at 26 µM (top of the series)): -57.3% (inactive)

COCCNC(=O)C[C@H]1C=C[C@H](NS(=O)(=O)c2ccc(C)cc2)[C@@H](CO)O1
activity change, negative = cytotoxicity (at 26 µM (top of the series)): -8.29% (inactive)

C[C@@H]1CN([C@@H](C)CO)C(=O)CCCn2cc(nn2)CO[C@@H]1CN(C)C(=O)NC1CCCC1
activity change, negative = cytotoxicity (at 26 µM (top of the series)): 5.64% (inactive)

C[C@H]1CN([C@@H](C)CO)C(=O)c2cccc(NS(=O)(=O)c3ccc(Cl)cc3)c2O[C@@H]1CN(C)CC1CC1
activity change, negative = cytotoxicity (at 26 µM (top of the series)): 18% (inactive)

O=C(CSc1ncnc2c1cnn2-c1ccc(F)cc1)NC1CCCC1
activity change, negative = cytotoxicity (at 26 µM (top of the series)): -30.5% (inactive)

C[C@H]1CN([C@@H](C)CO)C(=O)CCCn2cc(nn2)CO[C@@H]1CN(C)Cc1ccc(C(F)(F)F)cc1
activity change, negative = cytotoxicity (at 26 µM (top of the series)): -2.59% (inactive)

Cc1noc(C)c1NC(=O)N(C)C[C@@H]1Oc2ccc(NC(=O)C3CC3)cc2CC(=O)N([C@H](C)CO)C[C@@H]1C
activity change, negative = cytotoxicity (at 26 µM (top of the series)): 30.7% (inactive)

O=C(C[C@H]1CC[C@H]2[C@@H](COC[C@@H](O)CN2S(=O)(=O)c2ccc(Oc3ccccc3)cc2)O1)NC1CCC1
activity change, negative = cytotoxicity (at 26 µM (top of the series)): 16.3% (inactive)

COc1ccc(NC(=O)Nc2ccc3c(c2)C(=O)N([C@H](C)CO)C[C@@H](C)[C@@H](CN(C)C(=O)CCC(F)(F)F)OCCCC[C@H](C)O3)cc1
activity change, negative = cytotoxicity (at 26 µM (top of the series)): -34.4% (inactive)

C[C@@H]1CN([C@H](C)CO)C(=O)c2cc(NS(=O)(=O)c3cn(C)cn3)ccc2O[C@H]1CN(C)C(=O)Nc1cccc2ccccc12
activity change, negative = cytotoxicity (at 23.5 µM (top of the series)): 17.8% (inactive)

O=C(NCC[C@H]1CC[C@@H](NS(=O)(=O)c2ccc(F)cc2)[C@H](CO)O1)c1ccc2c(c1)OCO2
activity change, negative = cytotoxicity (at 26 µM (top of the series)): 1.86% (inactive)

N#Cc1ccc(C23CC4(C2)[C@H](CN(Cc2ccc(C(F)(F)F)cc2)[C@@H]4c2ccccc2)C3c2ccc(C(F)(F)F)cc2)cc1 (stereo partly specified)
activity change, negative = cytotoxicity (at 26 µM (top of the series)): 10.4% (inactive)

COC(=O)C1=C(C)N(Cc2ccc(Cl)cc2)C(=S)NC1c1ccc(Br)cc1 (stereo unspecified)
activity change, negative = cytotoxicity (at 23.5 µM (top of the series)): -20.4% (inactive)

C[C@H](CO)N1C[C@H](C)[C@H](CN(C)C(=O)c2ccccn2)Oc2ncc(-c3ccccc3)cc2C1=O
activity change, negative = cytotoxicity (at 26 µM (top of the series)): -0.807% (inactive)

CC(=O)N[C@H]1CC[C@H](CCNC(=O)C2CCC2)O[C@@H]1CO
activity change, negative = cytotoxicity (at 26 µM (top of the series)): 10.8% (inactive)

COc1ccc(S(=O)(=O)Nc2ccc3c(c2)C(=O)N([C@H](C)CO)C[C@H](C)[C@H](CN(C)C(=O)Nc2ccccc2)O3)cc1
activity change, negative = cytotoxicity (at 26 µM (top of the series)): -2.82% (inactive)

CN1C(=O)c2cc(NS(=O)(=O)c3cccc(F)c3)ccc2OC[C@H]2O[C@H](CC(=O)O)CC[C@H]21
activity change, negative = cytotoxicity (at 26 µM (top of the series)): 29.9% (inactive)

CO[C@H]1CN(C)C(=O)c2cc(NC(=O)c3ccccc3F)ccc2OC[C@H](C)N(C(C)=O)C[C@H]1C
activity change, negative = cytotoxicity (at 26 µM (top of the series)): -16.7% (inactive)

CO[C@H]1CN(C)C(=O)c2cc(NC(=O)c3ccc4c(c3)OCO4)ccc2OC[C@@H](C)N(CC2CC2)C[C@H]1C
activity change, negative = cytotoxicity (at 26 µM (top of the series)): -5.62% (inactive)

O=C(C[C@H]1C[C@@H]2c3cc(NC(=O)CC4CC4)ccc3O[C@@H]2[C@@H](CO)O1)NCc1cccc(F)c1
activity change, negative = cytotoxicity (at 26 µM (top of the series)): 35.8% (inactive)

CO[C@@H]1CN(C)C(=O)c2ccc(NC(=O)C3CC3)cc2OC[C@H](C)N(Cc2ccc(F)cc2)C[C@H]1C
activity change, negative = cytotoxicity (at 26 µM (top of the series)): -10.4% (inactive)

Cc1ccc(S(=O)(=O)N2C[C@@H](O)COC[C@H]3O[C@H](CC(=O)NCc4ccc5c(c4)OCO5)CC[C@@H]32)cc1
activity change, negative = cytotoxicity (at 23.5 µM (top of the series)): -12.4% (inactive)

N#Cc1ccc(-c2ccc3c(c2)[C@@H]2[C@@H](CCN2C(=O)Cc2ccccc2)[C@@H](CO)N3)cc1
activity change, negative = cytotoxicity (at 23.5 µM (top of the series)): -19.6% (inactive)

CO[C@@H]1CN(C)C(=O)c2ccc(NC(=O)C3CC3)cc2OC[C@H](C)N(C(=O)c2ccncc2)C[C@H]1C
activity change, negative = cytotoxicity (at 26 µM (top of the series)): -27.7% (inactive)

CO[C@H]1CN(C)C(=O)c2ccc(NC(=O)NC(C)C)cc2OC[C@@H](C)NC[C@H]1C
activity change, negative = cytotoxicity (at 26 µM (top of the series)): -16.2% (inactive)

CC(C)NC(=O)Nc1ccc2c(c1)C(=O)N([C@@H](C)CO)C[C@@H](C)[C@@H](CN(C)C(=O)NC1CCCCC1)OCCCC[C@H](C)O2
activity change, negative = cytotoxicity (at 23.5 µM (top of the series)): -7.35% (inactive)

Cc1ccc(CSc2ncnc3c2cnn3-c2ccc(C)cc2)cc1
activity change, negative = cytotoxicity (at 26 µM (top of the series)): -28.8% (inactive)

O=C(C[C@H]1CC[C@@H]2[C@H](COC[C@H](O)CN2CC2CCOCC2)O1)NCc1ccc(Cl)cc1
activity change, negative = cytotoxicity (at 26 µM (top of the series)): 19% (inactive)

CC(=O)NNC(=O)CSc1nnc(-c2ccccc2)c(-c2ccccc2)n1
activity change, negative = cytotoxicity (at 26 µM (top of the series)): -4.35% (inactive)

C[C@@H]1CN([C@H](C)CO)C(=O)c2cc(C#CC(C)(C)O)cnc2O[C@@H]1CN(C)Cc1cncnc1
activity change, negative = cytotoxicity (at 26 µM (top of the series)): 35.1% (inactive)

CCN1C(=S)N[C@@H](c2cccc(F)c2)C(C(=O)OC)=C1C
activity change, negative = cytotoxicity (at 26 µM (top of the series)): 5.06% (inactive)

C[C@H](CO)N1C[C@H](C)[C@H](CN(C)C(=O)Nc2ccc3c(c2)OCO3)Oc2ncc(-c3ccc(F)cc3)cc2C1=O
activity change, negative = cytotoxicity (at 26 µM (top of the series)): -18.8% (inactive)

CCCNC(=O)C[C@@H]1CC[C@H]2[C@@H](COC[C@H](O)CN2Cc2ccccc2F)O1
activity change, negative = cytotoxicity (at 26 µM (top of the series)): 22.6% (inactive)

O=C(c1cccc(F)c1)N1C[C@H]2[C@@H](c3ccccc31)[C@@H](CO)N2Cc1cocn1
activity change, negative = cytotoxicity (at 26 µM (top of the series)): -0.298% (inactive)

Cc1ccc(C2CC(c3cccs3)=NN2C(=O)c2ccc(Br)o2)cc1 (stereo unspecified)
activity change, negative = cytotoxicity (at 26 µM (top of the series)): 39% (inactive)

CC(C)CC#Cc1cnc2c(c1)C(=O)N([C@H](C)CO)C[C@H](C)[C@@H](CN(C)Cc1cccc(F)c1)O2
activity change, negative = cytotoxicity (at 26 µM (top of the series)): -9.35% (inactive)

C[C@@H]1CN([C@H](C)CO)C(=O)c2cc(N(C)C)ccc2O[C@@H]1CN(C)C(=O)Nc1ccc(C(F)(F)F)cc1
activity change, negative = cytotoxicity (at 26 µM (top of the series)): -77.2% (inactive)

CNC(=O)C[C@@H]1CC[C@@H]2[C@H](COc3ccc(NC(=O)c4cc(C)on4)cc3C(=O)N2C)O1
activity change, negative = cytotoxicity (at 23.5 µM (top of the series)): 26.8% (inactive)

C[C@H]1CN([C@@H](C)CO)C(=O)c2cccc(NS(C)(=O)=O)c2O[C@H]1CN(C)C(=O)Nc1ccc2c(c1)OCO2
activity change, negative = cytotoxicity (at 26 µM (top of the series)): 20.3% (inactive)

COc1ccc(CN(C)C[C@@H]2OCCCC[C@@H](C)Oc3ccc(NC(=O)c4ccccc4)cc3C(=O)N([C@H](C)CO)C[C@@H]2C)cc1
activity change, negative = cytotoxicity (at 26 µM (top of the series)): -11.1% (inactive)

CCCNC(=O)N(C)C[C@H]1Oc2ncc(C#CC3CCCCC3)cc2C(=O)N([C@@H](C)CO)C[C@@H]1C
activity change, negative = cytotoxicity (at 26 µM (top of the series)): 9.03% (inactive)

CCCC#Cc1ccc2c(c1)O[C@@H](CN(C)C)[C@@H](C)CN([C@@H](C)CO)S2(=O)=O
activity change, negative = cytotoxicity (at 26 µM (top of the series)): 13.6% (inactive)

O=C(C[C@H]1CC[C@H]2[C@@H](COC[C@H](O)CN2Cc2cc(F)cc(F)c2)O1)Nc1nccs1
activity change, negative = cytotoxicity (at 26 µM (top of the series)): 0.29% (inactive)

CC(C)C#Cc1ccc2c(c1)O[C@H](CN(C)C(=O)Cc1ccccn1)[C@H](C)CN([C@H](C)CO)S2(=O)=O
activity change, negative = cytotoxicity (at 26 µM (top of the series)): -25.6% (inactive)

COc1ccccc1C(=O)N1C[C@H]2[C@@H](c3ccccc31)[C@@H](CO)N2C(=O)Cc1ccccc1
activity change, negative = cytotoxicity (at 26 µM (top of the series)): -6.87% (inactive)
